Experimental data taken from ChEMBL document CHEMBL6153023, “Tubulin/HDAC dual-target inhibitors: Insights from design strategies, SARs, and therapeutic potential” (Eur J Med Chem, 2025).
pIC50: −log10 of the molar value.

Tests used:
Tubulin [1] = experiment: Inhibition of tubulin polymerization (unknown origin); format: protein-complex assay, Homo sapiens
MCF7 [2] = experiment: Antitumor activity against human MCF7 cells xenografted in BALB/c nude mouse assessed as tumor growth inhibition at 25 mg/kg, ip administered once daily for 1 week relative to control; format: functional; details: MCF7, 168 h, time 1 weeks, read-out: TGI
HCT-116 [3] = experiment: Antitumor activity against human HCT-116 cells xenografted in BALB/c nude mouse assessed as tumor growth inhibition at 25 mg/kg, ip administered once daily for 1 week relative to control; format: functional; details: HCT-116, 168 h, time 1 weeks, read-out: TGI
A2780 = experiment: Antitumor activity against human A2780 cells xenografted in BALB/c nude mouse assessed as tumor growth inhibition at 25 mg/kg, ip administered once daily for 1 week relative to control; format: functional; details: A2780, 168 h, time 1 weeks, read-out: TGI
HCT-116 [4] = experiment: Antiproliferative activity against human HCT-116 cells assessed as reduction in cell viability incubated for 48 hrs by MTT assay; format: functional, cell-based; details: HCT-116, 48 h
A549 [5] = experiment: Antiproliferative activity against human A549 cells assessed as reduction in cell viability incubated for 48 hrs by MTT assay; format: functional, cell-based; details: A549, 48 h
PC-3 [6] = experiment: Antiproliferative activity against human PC-3 cells assessed as reduction in cell viability incubated for 48 hrs by MTT assay; format: functional, cell-based; details: PC-3, 48 h
HL-60 = experiment: Antitumor activity against human HL-60 cells xenografted in nude mouse assessed as inhibition of tumor growth at 100 mg/kg, ip administered once daily for 7 days relative to control; format: functional; details: HL-60, 168 h, time 7 day, read-out: TGI
[7] = biological target: T1, Protein deacetylase HDAC6 (Homo sapiens, UniProt Q9UBN7); experiment: Inhibition of HDAC6 (unknown origin)
T1 sequence (Q9UBN7 whole entry): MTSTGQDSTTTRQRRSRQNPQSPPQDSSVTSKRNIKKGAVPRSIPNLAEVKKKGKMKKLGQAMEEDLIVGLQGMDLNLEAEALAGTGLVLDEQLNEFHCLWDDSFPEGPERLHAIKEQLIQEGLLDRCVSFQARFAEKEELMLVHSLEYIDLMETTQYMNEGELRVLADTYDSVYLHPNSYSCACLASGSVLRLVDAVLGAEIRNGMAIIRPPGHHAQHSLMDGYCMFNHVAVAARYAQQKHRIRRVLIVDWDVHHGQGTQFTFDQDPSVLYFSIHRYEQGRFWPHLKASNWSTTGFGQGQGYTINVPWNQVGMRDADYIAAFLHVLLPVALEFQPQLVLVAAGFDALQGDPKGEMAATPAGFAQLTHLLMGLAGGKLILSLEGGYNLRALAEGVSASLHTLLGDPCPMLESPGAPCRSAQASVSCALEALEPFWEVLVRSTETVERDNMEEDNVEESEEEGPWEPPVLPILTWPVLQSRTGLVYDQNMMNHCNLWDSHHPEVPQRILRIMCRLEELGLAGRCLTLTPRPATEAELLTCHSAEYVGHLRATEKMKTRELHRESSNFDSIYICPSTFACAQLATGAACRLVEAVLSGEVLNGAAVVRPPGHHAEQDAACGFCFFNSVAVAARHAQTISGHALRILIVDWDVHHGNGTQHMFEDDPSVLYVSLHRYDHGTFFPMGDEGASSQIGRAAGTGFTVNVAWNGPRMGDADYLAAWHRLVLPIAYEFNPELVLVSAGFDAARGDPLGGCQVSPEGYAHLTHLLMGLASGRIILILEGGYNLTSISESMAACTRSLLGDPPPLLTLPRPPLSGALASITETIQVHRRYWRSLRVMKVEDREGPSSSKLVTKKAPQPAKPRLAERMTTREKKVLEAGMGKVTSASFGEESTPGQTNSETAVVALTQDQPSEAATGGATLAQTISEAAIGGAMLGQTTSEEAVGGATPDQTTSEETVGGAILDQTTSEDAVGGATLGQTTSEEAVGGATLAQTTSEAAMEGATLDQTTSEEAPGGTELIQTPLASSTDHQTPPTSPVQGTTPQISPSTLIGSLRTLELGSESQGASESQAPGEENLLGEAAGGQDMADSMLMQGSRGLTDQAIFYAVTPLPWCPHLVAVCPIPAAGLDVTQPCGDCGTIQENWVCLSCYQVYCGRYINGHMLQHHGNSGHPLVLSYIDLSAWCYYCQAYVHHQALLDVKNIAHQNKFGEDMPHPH

PC-3 [8] = experiment: Antitumor activity against human PC-3 cells xenografted in nude mouse assessed as inhibition of tumor growth at 100 mg/kg, ip administered once daily for 7 days relative to control; format: functional; details: PC-3, 168 h, time 7 day, read-out: TGI
MCF7 [9] = experiment: Antiproliferative activity against human MCF7 cells assessed as reduction in cell viability incubated for 72 hrs by MTT assay; format: functional, cell-based; details: MCF7, 72 h
HepG2 = experiment: Antiproliferative activity against human HepG2 cells assessed as reduction in cell viability incubated for 72 hrs by MTT assay; format: functional, cell-based; details: HepG2, 72 h
[10] = Inhibition of bovine brain tubulin polymerization measured after 20 mins by spectrophotometric analysis; design: species or system Bos taurus
Tubulin [11] = experiment: Inhibition of tubulin polymerization (unknown origin) by fluorescence based assay; format: protein-complex assay, Homo sapiens
UO-31 = experiment: Antiproliferative activity against human UO-31 cells assessed as reduction in cell viability by MTT assay; format: functional, cell-based
[12] = biological target: T1, Protein deacetylase HDAC6; experiment: Inhibition of FLAG/His-tagged human recombinant HDAC6 extracted from baculovirus infected Sf9 cells […] by fluorescence based analysis
Histone deacetylase 1 [13] = biological target: T2, Histone deacetylase 1 (Homo sapiens, UniProt Q13547); experiment: Inhibition of human recombinant FLAG/His-tagged HDAC1 using fluorogenic substrate by fluorescence microplate reader assay
T2 sequence (Q13547 whole entry): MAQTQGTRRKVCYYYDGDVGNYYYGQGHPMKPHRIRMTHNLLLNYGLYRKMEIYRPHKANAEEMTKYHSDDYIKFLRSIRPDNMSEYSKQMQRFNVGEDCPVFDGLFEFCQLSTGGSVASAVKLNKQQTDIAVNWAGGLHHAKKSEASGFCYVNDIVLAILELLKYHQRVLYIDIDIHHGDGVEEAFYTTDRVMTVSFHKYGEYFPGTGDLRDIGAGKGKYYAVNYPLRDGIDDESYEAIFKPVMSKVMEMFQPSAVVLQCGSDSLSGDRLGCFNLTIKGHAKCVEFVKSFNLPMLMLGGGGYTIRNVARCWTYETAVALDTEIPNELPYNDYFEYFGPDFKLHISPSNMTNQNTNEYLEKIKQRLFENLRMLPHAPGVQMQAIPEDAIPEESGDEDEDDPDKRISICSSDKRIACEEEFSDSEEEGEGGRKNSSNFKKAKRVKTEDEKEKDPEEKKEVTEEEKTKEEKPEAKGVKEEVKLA

T47D = experiment: Antiproliferative activity against human T47D cells assessed as reduction in cell viability by MTT assay; format: functional, cell-based
518A2 = experiment: Antiproliferative activity against human 518A2 cells assessed as reduction in cell viability incubated for 72 hrs by MTT assay; format: functional, cell-based; details: 518A2, 72 h
Tubulin (Homo sapiens) = Tubulin (Homo sapiens) (UniProt P68371+Q9H4B7+P0DPH7+P68366+Q13509+Q71U36+P04350+Q3ZCM7+P07437+P68363+Q9BQE3+Q6PEY2+Q13885+Q9BVA1+Q9BUF5); experiment: Inhibition of tubulin polymerization (unknown origin) at 10 uM relative to control; format: protein-complex assay
A549 [14] = experiment: Cytotoxicity against human A549 cells assessed as reduction in cell growth measured for 72 hrs by MTT assay; format: functional, cell-based; details: A549, 72 h
Histone deacetylase 2 [15] = biological target: T3, Histone deacetylase 2 (Homo sapiens, UniProt Q92769); experiment: Inhibition of human recombinant HDAC2 extracted from baculovirus infected Insect cells using Ac-Lys-Tyr-Lys (acetyl)-AMC as substrate incubated for 24 hrs by fluorescence analysis; design: species or system Insect cell
T3 sequence (Q92769 whole entry): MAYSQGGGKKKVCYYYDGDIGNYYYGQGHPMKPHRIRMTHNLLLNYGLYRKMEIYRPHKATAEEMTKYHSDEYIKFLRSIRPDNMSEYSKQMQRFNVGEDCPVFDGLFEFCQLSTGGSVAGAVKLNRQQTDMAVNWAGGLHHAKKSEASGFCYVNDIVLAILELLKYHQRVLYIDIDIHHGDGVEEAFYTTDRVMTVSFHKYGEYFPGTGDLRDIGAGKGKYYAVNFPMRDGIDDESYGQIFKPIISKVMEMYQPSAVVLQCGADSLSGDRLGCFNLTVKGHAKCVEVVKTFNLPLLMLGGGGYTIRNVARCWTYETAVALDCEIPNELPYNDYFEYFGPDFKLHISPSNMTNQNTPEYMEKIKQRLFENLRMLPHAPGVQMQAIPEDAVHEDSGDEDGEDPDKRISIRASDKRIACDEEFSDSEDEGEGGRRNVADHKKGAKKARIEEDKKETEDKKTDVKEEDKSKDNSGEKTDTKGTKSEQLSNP

HCT-116 [16] = experiment: Antiproliferative activity against human HCT-116 cells assessed as reduction in cell viability by MTT assay; format: functional, cell-based
KYSE-450 = experiment: Antiproliferative activity against human KYSE-450 cells assessed as reduction in cell viability by MTT assay; format: functional, cell-based
MGC-803 = experiment: Antiproliferative activity against human MGC-803 cells assessed as reduction in cell viability by MTT assay; format: functional, cell-based
Histone deacetylase 1 [17] = biological target: T2, Histone deacetylase 1; experiment: Inhibition of HDAC1 (unknown origin)
Histone deacetylase 2 [18] = biological target: T3, Histone deacetylase 2; experiment: Inhibition of human recombinant HDAC2 extracted from baculovirus infected Sf9 insect cells using Ac-Leu-Gly-Lys(Ac)-AMC as substrate preincubated for 30 mins followed by substrate addition measured after 1 hr by fluorescence based analysis
Homo sapiens [19] = organism: Homo sapiens; experiment: Selectivity index, ratio of IC50 for inhibition of human recombinant HDAC2 to IC50 for inhibition of human recombinant HDAC6
Histone deacetylase 1 [20] = biological target: T2, Histone deacetylase 1; experiment: Inhibition of human recombinant HDAC1 using Boc-Lys(Ac)-AMC or Boc-Lys(Tfa)-AMC as substrate incubated for 1 hr by fluorescence based analysis
[21] = biological target: T1, Protein deacetylase HDAC6; experiment: Inhibition of human recombinant HDAC6 using Boc-Lys(Ac)-AMC as substrate preincubated for 15 mins followed by substrate addition and measured after 60 mins by fluorescence based microplate reader analysis
Homo sapiens [22] = organism: Homo sapiens; experiment: Selectivity index, ratio of IC50 for inhibition of human recombinant HDAC1 to IC50 for inhibition of human recombinant HDAC6

COc1ccc2c(C)c(C(=O)c3cc(OC)c(OC)c(OC)c3)oc2c1
pIC50 (Tubulin [1]): 6.21

COc1ccc(N(C)c2nc(C)nc3ccccc23)cc1OCCCC(=O)NO
inhibition in vivo at 25 mg/kg (MCF7 [2]): 50.5%
inhibition in vivo at 25 mg/kg (HCT-116 [3]): 60.4%
inhibition in vivo at 25 mg/kg (A2780): 77.4%

COc1ccc2c(C(=O)c3cc(OC)c(OC)c(OO)c3)cn(S(=O)(=O)c3cccc(/C=C/CC(=O)NO)c3)c2c1
pIC50 (HCT-116 [4]): 7.36
pIC50 (A549 [5]): 7.14
pIC50 (PC-3 [6]): 7.48
inhibition in vivo at 100 mg/kg (HL-60): 40.9%
pIC50 [7]: 6.56
inhibition in vivo at 100 mg/kg (PC-3 [8]): 31.1%

COc1cc(/C=C/C(=O)c2ccc(NC(=O)c3ccccc3CN3C(=O)c4ccccc4C3=O)cc2)cc(OC)c1OC
pIC50 (MCF7 [9]): 5.73
pIC50 (HepG2): 5.79
pIC50 (Tubulin [1]): 5.63

COc1cccc(C(=O)c2oc3cc(OC)c(C#CC(=O)NO)cc3c2C)c1
pIC50 [10]: 6.38

CNC(=O)CCCCOc1nc(-c2ccc(OC)cc2)cc(-c2cc(OC)c(OC)c(OC)c2)c1C#N
pIC50 (Tubulin [11]): 5.45
pIC50 (UO-31): 5.45
pIC50 [12]: 7.08
pIC50 (Histone deacetylase 1 [13]): 7.14
pIC50 (T47D): 5.26

COc1ccc(-c2ocnc2-c2cc(Br)c(OC)c(OC)c2)cc1OCCCC(=O)NO
pIC50 (518A2): 6.15

COc1ccc2c(C(=O)c3cc(OC)c(OC)c(OO)c3)c[nH]c2c1
pIC50 (Tubulin [1]): 5.55

COc1ccc(-c2cccc(-c3cc(OC)c(OC)c(OC)c3)n2)cc1O
inhibition (Tubulin (Homo sapiens)): 32%

COc1cc([C@@H]2c3cc4c(cc3C[C@H]3COC(=O)[C@@H]32)OCO4)cc(OC)c1OC(=O)CC(=O)NCc1ccc(C(=O)Nc2ccccc2N)cc1
pIC50 (A549 [14]): 7.40

COc1cc([C@@H]2c3cc4c(cc3C[C@H]3COC(=O)[C@@H]32)OCO4)cc(OC)c1OC(=O)CC(=O)Nc1ccc(C(=O)Nc2ccccc2N)cc1
pIC50 (Histone deacetylase 2 [15]): 5.76

COc1ccc(CN(C(=O)CC2CCC(C(=O)Nc3ccccc3N)CC2)c2cc(OC)c(OC)c(OC)c2)cc1O (stereo not given)
pIC50 (HCT-116 [16]): 6.76
pIC50 (KYSE-450): 6.60
pIC50 (Tubulin [1]): 5.44
pIC50 (MGC-803): 7.41
pIC50 (Histone deacetylase 1 [17]): 6.28

COc1ccc(-c2cccc(-c3cc(OC)c(OC)c(OC)c3)n2)cc1CCC(=O)NO
pIC50 (Tubulin [1]): 6.93

COc1ccc2c(C(=O)c3cc(OC)c(OC)c(OO)c3)cn(Cc3ccc(C(=O)NO)cc3)c2c1
pIC50 (Histone deacetylase 2 [18]): 5.85
Ratio IC50 (Homo sapiens [19]): 21.8
pIC50 (Histone deacetylase 1 [20]): 6.24
pIC50 [21]: 7.19
Ratio IC50 (Homo sapiens [22]): 8.89
